Experimental data published in PMC6211260 (Journal of Enzyme Inhibition and Medicinal Chemistry, 2018).
Where “and” joins values, the source holds several entries; their conditions need not be identical. Identical values can stand only once.

What was measured:
BRAF = target: T1, BRAF (Homo sapiens, UniProt P15056); assay: In vitro kinase screening (Kinase HotSpot); format: biochemical
T1 construct: purchased Reaction Biology Corp
Description: (§1) To investigate the biological target of compound, Reaction Biology Corp. Kinase HotSpotSM service was used adopting standard assay protocol.

BRAF (V600E) = target: T2, BRAF (V600E) (Homo sapiens, UniProt P15056, V600E); assay: In vitro kinase screening (Kinase HotSpot); format: biochemical
T2 construct: purchased Reaction Biology Corp
T2 sequence (P15056 whole entry V600E): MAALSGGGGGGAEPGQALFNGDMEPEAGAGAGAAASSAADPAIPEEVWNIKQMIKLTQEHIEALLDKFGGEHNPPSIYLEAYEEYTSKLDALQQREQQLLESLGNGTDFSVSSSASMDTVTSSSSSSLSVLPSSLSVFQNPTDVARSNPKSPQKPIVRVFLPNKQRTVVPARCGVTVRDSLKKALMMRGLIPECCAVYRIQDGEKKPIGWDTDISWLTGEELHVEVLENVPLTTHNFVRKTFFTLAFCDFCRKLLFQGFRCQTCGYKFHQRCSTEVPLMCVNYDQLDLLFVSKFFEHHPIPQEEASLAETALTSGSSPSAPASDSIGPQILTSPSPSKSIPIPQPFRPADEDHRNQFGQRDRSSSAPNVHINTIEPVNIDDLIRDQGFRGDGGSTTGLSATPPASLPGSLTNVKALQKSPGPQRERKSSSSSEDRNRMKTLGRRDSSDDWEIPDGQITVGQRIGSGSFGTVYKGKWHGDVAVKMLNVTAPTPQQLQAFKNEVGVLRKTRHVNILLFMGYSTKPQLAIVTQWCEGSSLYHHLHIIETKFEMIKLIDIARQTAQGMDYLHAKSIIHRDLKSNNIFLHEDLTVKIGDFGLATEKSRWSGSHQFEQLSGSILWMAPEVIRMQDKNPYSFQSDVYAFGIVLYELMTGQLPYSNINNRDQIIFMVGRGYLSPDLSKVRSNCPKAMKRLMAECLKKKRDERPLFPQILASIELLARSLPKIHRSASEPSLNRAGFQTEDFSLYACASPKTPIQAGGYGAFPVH
Description: as §1

CDK2/cyclin E = target: T3, CDK2/cyclin E (Homo sapiens, UniProt P24941); assay: In vitro kinase screening (Kinase HotSpot); format: biochemical; conditions: single dose of 10 µM
T3 construct: purchased Reaction Biology Corp
Description: as §1

ERK1 = target: T4, ERK1 (Homo sapiens, UniProt P27361); assay: In vitro kinase screening (Kinase HotSpot); format: biochemical; conditions: single dose of 10 µM
T4 construct: purchased Reaction Biology Corp
T4 sequence (P27361 whole entry): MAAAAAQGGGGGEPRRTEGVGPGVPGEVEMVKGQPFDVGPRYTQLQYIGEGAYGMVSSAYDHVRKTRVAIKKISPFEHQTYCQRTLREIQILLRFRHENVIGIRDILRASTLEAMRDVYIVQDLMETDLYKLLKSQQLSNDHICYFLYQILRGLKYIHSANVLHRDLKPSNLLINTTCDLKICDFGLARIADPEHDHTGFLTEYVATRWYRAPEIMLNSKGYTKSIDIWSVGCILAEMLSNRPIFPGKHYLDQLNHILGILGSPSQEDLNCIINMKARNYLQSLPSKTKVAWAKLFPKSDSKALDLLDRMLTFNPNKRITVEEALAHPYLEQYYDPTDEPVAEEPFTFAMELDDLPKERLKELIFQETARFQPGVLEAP
Description: as §1

FMS = target: T5, FMS (Homo sapiens, UniProt P07333); assay: In vitro kinase screening (Kinase HotSpot); format: biochemical; conditions: single dose of 10 µM
T5 construct: purchased Reaction Biology Corp
Description: as §1

GSK3b = target: T6, GSK3b (Homo sapiens, UniProt P49841); assay: In vitro kinase screening (Kinase HotSpot); format: biochemical; conditions: single dose of 10 µM, 10 µM
T6 construct: purchased Reaction Biology Corp
T6 sequence (P49841 whole entry): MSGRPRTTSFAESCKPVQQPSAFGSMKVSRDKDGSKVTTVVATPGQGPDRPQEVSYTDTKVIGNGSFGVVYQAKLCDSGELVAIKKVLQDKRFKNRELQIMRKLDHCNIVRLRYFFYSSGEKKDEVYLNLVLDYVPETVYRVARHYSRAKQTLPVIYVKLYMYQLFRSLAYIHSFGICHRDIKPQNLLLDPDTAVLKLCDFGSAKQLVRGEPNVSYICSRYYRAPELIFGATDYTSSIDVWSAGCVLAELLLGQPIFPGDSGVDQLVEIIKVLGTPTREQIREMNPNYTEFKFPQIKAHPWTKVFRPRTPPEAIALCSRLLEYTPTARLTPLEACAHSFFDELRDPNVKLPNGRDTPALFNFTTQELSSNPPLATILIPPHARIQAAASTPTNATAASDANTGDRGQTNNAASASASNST
Description: as §1

IKKb/IKBKB = target: T7, IKKb/IKBKB (Homo sapiens, UniProt O14920); assay: In vitro kinase screening (Kinase HotSpot); format: biochemical; conditions: single dose of 10 µM
T7 construct: purchased Reaction Biology Corp
T7 sequence (O14920 1-756): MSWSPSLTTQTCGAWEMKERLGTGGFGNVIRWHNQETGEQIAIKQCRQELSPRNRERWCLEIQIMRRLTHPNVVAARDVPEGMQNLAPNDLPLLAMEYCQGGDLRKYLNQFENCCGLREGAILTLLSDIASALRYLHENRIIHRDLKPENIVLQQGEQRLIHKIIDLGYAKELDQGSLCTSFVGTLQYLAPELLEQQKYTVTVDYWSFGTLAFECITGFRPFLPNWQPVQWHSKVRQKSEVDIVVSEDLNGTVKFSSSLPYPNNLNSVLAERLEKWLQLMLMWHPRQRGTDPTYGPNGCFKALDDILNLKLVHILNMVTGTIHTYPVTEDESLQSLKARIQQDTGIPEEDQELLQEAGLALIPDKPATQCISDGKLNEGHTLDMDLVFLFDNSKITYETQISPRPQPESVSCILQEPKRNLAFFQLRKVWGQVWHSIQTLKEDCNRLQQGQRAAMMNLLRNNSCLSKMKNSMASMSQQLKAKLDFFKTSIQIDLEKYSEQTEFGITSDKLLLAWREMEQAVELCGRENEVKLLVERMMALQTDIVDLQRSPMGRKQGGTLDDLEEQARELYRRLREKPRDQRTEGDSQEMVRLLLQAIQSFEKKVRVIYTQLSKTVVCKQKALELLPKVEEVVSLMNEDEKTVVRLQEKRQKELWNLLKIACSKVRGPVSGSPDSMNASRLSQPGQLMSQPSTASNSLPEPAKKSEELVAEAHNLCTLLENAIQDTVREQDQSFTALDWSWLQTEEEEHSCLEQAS
Description: as §1

JNK1 = target: T8, JNK1 (Homo sapiens, UniProt P45983); assay: In vitro kinase screening (Kinase HotSpot); format: biochemical
T8 construct: purchased Reaction Biology Corp
T8 sequence (P45983 whole entry): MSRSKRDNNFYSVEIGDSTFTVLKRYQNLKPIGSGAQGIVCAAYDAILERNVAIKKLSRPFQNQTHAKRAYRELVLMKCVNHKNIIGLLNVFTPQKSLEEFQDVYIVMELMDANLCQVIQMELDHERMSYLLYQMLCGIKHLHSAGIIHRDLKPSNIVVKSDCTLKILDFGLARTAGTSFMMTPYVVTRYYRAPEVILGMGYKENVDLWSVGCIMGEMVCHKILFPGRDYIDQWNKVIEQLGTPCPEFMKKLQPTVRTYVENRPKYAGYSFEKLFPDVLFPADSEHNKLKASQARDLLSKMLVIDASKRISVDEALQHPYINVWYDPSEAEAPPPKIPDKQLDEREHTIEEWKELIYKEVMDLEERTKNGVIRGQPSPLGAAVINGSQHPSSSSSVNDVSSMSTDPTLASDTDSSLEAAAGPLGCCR
Description: as §1

JNK2 = target: T9, JNK2 (Homo sapiens, UniProt P45984); assay: In vitro kinase screening (Kinase HotSpot); format: biochemical
T9 construct: purchased Reaction Biology Corp
T9 sequence (P45984 whole entry): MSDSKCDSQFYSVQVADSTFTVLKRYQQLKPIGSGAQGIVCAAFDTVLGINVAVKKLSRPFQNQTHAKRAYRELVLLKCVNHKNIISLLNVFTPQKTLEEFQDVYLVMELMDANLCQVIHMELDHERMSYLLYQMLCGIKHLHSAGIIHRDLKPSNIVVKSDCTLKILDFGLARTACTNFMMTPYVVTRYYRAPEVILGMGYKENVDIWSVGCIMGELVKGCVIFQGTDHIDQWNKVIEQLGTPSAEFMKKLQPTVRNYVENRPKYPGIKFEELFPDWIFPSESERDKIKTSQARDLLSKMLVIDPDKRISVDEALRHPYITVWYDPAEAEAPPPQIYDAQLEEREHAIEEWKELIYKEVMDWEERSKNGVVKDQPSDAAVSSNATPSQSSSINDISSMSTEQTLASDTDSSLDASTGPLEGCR
Description: as §1

JNK3 = target: T10, JNK3 (Homo sapiens, UniProt P53779); assay: In vitro kinase screening (Kinase HotSpot); format: biochemical; conditions: single dose of 10 µM
T10 construct: purchased Reaction Biology Corp
Description: as §1

KDR/VEGFR2 = target: T11, KDR/VEGFR2 (Homo sapiens, UniProt P35968); assay: In vitro kinase screening (Kinase HotSpot); format: biochemical; conditions: single dose of 10 µM
T11 construct: purchased Reaction Biology Corp
Description: as §1

MEK1 = target: T12, MEK1 (Homo sapiens, UniProt Q02750); assay: In vitro kinase screening (Kinase HotSpot); format: biochemical; conditions: single dose of 10 µM
T12 construct: purchased Reaction Biology Corp
T12 sequence (Q02750 whole entry): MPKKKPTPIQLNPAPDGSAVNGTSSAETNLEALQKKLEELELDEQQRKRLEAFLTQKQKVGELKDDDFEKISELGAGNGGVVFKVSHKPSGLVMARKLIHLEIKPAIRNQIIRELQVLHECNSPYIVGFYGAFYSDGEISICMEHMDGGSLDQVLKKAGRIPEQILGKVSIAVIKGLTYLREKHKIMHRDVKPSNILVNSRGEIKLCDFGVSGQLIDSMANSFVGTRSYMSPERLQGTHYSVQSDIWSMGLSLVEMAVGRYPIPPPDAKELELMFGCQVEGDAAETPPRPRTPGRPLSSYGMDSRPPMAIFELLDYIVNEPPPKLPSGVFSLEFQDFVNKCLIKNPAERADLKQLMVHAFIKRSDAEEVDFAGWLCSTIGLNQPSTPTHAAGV
Description: as §1

MEK2 = target: T13, MEK2 (Homo sapiens, UniProt P36507); assay: In vitro kinase screening (Kinase HotSpot); format: biochemical; conditions: single dose of 10 µM
T13 construct: purchased Reaction Biology Corp
Description: as §1

MKK6 = target: T14, MKK6 (Homo sapiens, UniProt P52564); assay: In vitro kinase screening (Kinase HotSpot); format: biochemical; conditions: single dose of 10 µM
T14 construct: purchased Reaction Biology Corp
Description: as §1

P38a/MAPK14 = target: T15, P38a/MAPK14 (Homo sapiens, UniProt Q16539); assay: In vitro kinase screening (Kinase HotSpot); format: biochemical
T15 construct: purchased Reaction Biology Corp
T15 sequence (Q16539 whole entry): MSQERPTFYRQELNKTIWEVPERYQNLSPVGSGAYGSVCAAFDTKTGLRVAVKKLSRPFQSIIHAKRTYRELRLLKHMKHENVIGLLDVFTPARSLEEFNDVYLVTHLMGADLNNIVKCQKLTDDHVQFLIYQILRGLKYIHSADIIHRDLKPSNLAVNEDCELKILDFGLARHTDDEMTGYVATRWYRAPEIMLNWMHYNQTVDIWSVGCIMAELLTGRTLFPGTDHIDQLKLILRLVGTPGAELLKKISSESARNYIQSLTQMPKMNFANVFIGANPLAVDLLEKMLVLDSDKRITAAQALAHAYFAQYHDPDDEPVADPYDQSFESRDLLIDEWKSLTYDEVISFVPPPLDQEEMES
Description: as §1

RAF1 = target: T16, RAF1 (Homo sapiens, UniProt P04049); assay: In vitro kinase screening (Kinase HotSpot); format: biochemical
T16 construct: purchased Reaction Biology Corp
T16 sequence (P04049 whole entry): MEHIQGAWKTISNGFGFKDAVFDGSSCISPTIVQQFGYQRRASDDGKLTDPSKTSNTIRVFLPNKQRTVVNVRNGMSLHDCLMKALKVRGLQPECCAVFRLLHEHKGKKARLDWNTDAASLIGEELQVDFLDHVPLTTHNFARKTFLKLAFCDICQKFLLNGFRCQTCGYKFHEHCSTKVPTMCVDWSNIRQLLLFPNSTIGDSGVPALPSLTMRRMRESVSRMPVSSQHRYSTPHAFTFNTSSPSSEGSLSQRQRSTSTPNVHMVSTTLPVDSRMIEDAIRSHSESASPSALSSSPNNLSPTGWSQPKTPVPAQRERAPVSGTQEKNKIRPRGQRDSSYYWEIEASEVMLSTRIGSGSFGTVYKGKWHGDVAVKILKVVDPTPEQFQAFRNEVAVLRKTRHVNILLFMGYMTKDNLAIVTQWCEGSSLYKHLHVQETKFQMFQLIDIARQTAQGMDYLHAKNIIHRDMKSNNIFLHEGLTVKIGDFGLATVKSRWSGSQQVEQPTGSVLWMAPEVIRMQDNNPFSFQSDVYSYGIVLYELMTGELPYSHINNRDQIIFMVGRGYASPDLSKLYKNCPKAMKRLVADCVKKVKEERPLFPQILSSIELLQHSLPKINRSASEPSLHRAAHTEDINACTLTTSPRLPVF
Description: as §1

ROS/ROS1 = target: T17, ROS/ROS1 (Homo sapiens, UniProt P08922); assay: In vitro kinase screening (Kinase HotSpot); format: biochemical; conditions: single dose of 10 µM
T17 construct: purchased Reaction Biology Corp
Description: as §1

mTOR/FRAP1 = target: T18, mTOR/FRAP1 (Homo sapiens, UniProt P42345); assay: In vitro kinase screening (Kinase HotSpot); format: biochemical; conditions: single dose of 10 µM
T18 construct: purchased Reaction Biology Corp
Description: as §1

Plasma stability = format: in vitro ADME; conditions: 37 °C, 10 µM
Description: About 10 µM of compound 2l was mixed with human plasma and rat plasma and the mixture was shaked at 37 °C for 30 min and 120 min. After each time interval, acetonitrile was added and the mixture was centrifugated (14000 rpm, 4 °C). The supernatant was injected into the LC-MS to detect the remaining amount of compound 2l.

hERG = target: T19, hERG (Homo sapiens, UniProt Q12809); assay: hERG binding assay (hERG Fluorescence Polarization Assay)
T19 construct: purchased Invitrogen PV5365
T19 sequence (Q12809 whole entry): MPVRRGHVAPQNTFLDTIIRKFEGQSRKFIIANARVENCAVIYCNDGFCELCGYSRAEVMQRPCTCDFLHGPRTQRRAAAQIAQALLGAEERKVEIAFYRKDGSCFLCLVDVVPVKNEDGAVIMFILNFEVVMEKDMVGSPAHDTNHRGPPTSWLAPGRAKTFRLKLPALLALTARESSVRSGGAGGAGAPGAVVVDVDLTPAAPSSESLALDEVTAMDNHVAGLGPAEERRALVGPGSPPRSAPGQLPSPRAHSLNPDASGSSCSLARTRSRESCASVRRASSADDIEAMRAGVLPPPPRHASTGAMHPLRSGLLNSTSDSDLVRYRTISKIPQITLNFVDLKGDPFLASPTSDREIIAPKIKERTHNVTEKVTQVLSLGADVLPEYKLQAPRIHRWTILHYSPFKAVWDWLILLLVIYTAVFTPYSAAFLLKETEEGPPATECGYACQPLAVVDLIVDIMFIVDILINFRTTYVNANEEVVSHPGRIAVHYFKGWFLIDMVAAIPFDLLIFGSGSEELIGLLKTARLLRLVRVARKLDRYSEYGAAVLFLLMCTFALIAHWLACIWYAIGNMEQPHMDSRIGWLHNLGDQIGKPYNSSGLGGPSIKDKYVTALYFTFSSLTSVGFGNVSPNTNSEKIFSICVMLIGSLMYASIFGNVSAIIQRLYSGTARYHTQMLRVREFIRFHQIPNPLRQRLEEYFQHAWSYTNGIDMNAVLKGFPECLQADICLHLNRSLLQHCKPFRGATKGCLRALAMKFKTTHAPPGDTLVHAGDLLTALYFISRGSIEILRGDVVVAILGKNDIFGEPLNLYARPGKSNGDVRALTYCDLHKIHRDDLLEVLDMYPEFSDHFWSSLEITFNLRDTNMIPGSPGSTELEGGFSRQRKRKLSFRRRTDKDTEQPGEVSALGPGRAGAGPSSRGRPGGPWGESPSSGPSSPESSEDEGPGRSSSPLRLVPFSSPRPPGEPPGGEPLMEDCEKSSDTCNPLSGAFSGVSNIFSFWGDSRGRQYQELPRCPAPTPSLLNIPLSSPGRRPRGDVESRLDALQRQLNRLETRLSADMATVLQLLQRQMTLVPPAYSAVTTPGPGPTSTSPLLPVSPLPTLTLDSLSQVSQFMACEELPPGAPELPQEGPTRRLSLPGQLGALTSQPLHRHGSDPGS
Description: hERG binding assay was performed using hERG Fluorescence Polarization Assay (Invitrogen: PV5365) assay kit and Synergy Neo (Biotek) and standard procedures were applied.

[1] = In vivo pharmacokinetic assay; conditions: SD rats, 10 mg/kg, mean, N = 3
Description: Serum samples were collected each 30 min. The blood concentration of the test compounds was determined by LC-MS/MS (Agilent 1290 infinity II series equipped with on-line degasser, binary pump, thermostatted well-plate autosampler and column compartment, Waters Atlantis® HSS T3 (2.1 × 100 mm, 1.9 µm) column, and mobile phase linear gradient from 95% A (0.1% formic acid in water) /5% B (0.1% formic acid in acetonitrile) to 5% A/95% B, 6500+ QTRAP LC-MS/MS/MS system, Turbo Spray Ion Drive as ion source, and Carbamazepine as internal standard. Pharmacokinetic parameters were obtained by non-compartmental analysis of the plasma concentration–time profiles using KineticaTM 4.4.1 (Thermo Fisher Scientific, Inc., Woburn, MA, USA).

T1 sequence (P15056 whole entry): as the sequence (P15056 whole entry V600E) above, with E600V counted along it

O=S(=O)(NCCCNc1cc(-c2cn(-c3ccccc3)nc2-c2cccc(O)c2)ccn1)c1ccc(Cl)cc1 [Compound 2l, 4-Chloro-N-(3-((4-(3-(3-hydroxyphenyl)-1-phenyl-1H-pyrazol-4-yl)pyridin-2-yl)amino)propyl) benzenesulfonamide]
IC50 (BRAF): 4870 ± 70 nM
Inhibition % (BRAF; single dose of 10 µM): 72.56 ± 0.27%
IC50 (BRAF (V600E); BRAF(V600E)): 1160 ± 40 nM
Inhibition % (BRAF (V600E); single dose of 10 µM, BRAF (V599E) in Table 6, BRAF (V600E) in text): 93.67 ± 0.47%
Inhibition % (CDK2/cyclin E): 22.92 ± 1.14%
Inhibition % (ERK1): 13.07 ± 0.93%
Inhibition % (FMS): 24.24 ± 1.14%
Inhibition % (GSK3b): 75.45 ± 0.28%
Inhibition % (IKKb/IKBKB): −2.94 ± 0.17%
IC50 (JNK1): 350 ± 40 nM
Inhibition % (JNK1; single dose of 10 µM, 10 µM): 99.02% and 99.05 ± 0.03%
IC50 (JNK2): 360 ± 70 nM
Inhibition % (JNK2; single dose of 10 µM, 10 µM): 98.47% and 98.49 ± 0.02%
Inhibition % (JNK3): 89.50 ± 0.03%
Inhibition % (KDR/VEGFR2): 10.05 ± 0.10%
Inhibition % (MEK1): 0.56 ± 1.08%
Inhibition % (MEK2): 11.73 ± 1.60%
Inhibition % (MKK6): 16.65 ± 0.11%
IC50 (P38a/MAPK14; MAPK14): 1130 ± 90 nM
Inhibition % (P38a/MAPK14; single dose of 10 µM, P38a/MAPK14): 86.54 ± 0.61%
IC50 (RAF1): 3520 ± 10 nM
Inhibition % (ROS/ROS1): 24.03 ± 0.51%
Inhibition % (mTOR/FRAP1): 0.72 ± 0.32%
Plasma stability, remaining unchanged (Plasma stability; Human plasma, 30 min): 100%
Plasma stability, remaining unchanged (Plasma stability; Human plasma, 30 min, listed as 2 l): 100%
Plasma stability, remaining unchanged (Plasma stability; Human plasma, 120 min): 95.3%
Plasma stability, remaining unchanged (Plasma stability; Human plasma, 120 min, listed as 2 l): 95.3%
Plasma stability, remaining unchanged (Plasma stability; Rat plasma, 30 min): 100%
Plasma stability, remaining unchanged (Plasma stability; Rat plasma, 120 min): 100%
IC50 (hERG): 8280 nM
AUCinf ([1]; IV): 1478.2 ng·h/mL
AUClast ([1]; IV): 1471.6 ng·h/mL
CL ([1]; IV): 113 mL/min/kg
t1/2 ([1]; IV): 5.8 h
AUCinf ([1]; PO): 142.1 ng·h/mL
AUClast ([1]; PO): 136.0 ng·h/mL
Cmax ([1]; PO): 36.6 ng/mL
F (oral bioavailability) ([1]; PO): 9.2%
Tmax ([1]; PO): 0.5 h
t1/2 ([1]; PO): 6.1 h
